Laboratory results taken from article PMC7111280 (European Journal of Medicinal Chemistry, 2018).

Legend:
[1] = tested on: Hel cells; settings: Table 5, HSV/vaccinia assays, Hel cell morphology
[2] = tested on: CMV (AD-169); test: Antiviral cytopathicity assay in Hel cells; assay type: cell-based, human cytomegalovirus
[3] = tested on: HMVEC; test: Endothelial cell proliferation, Coulter counter; assay type: cell-based; settings: Homo sapiens, 96 h, read-out: HMVEC IC50
[4] = tested on: MDA-MB-231-LM2 cells; test: Metastatic breast cancer xenograft mouse model; assay type: in vivo, SCID mice
[5] = tested on: HSV-1 (TK−) KOS ACVr; test: microbe, parasite or virus in culture; assay type: cell-based, herpes simplex virus type 1; settings: Human alphaherpesvirus 1, HEL, read-out: HSV-1 (TK−) KOS ACVr EC50
[6] = tested on: vaccinia virus; test: microbe, parasite or virus in culture; assay type: cell-based; settings: Orthopoxvirus vaccinia, HEL, read-out: vaccinia virus EC50
[7] = tested on: L1210; settings: read-out: L1210 IC50; proliferation, Coulter Counter cell count; cited from earlier work
[8] = tested on: CEM; settings: read-out: CEM IC50; proliferation, Coulter Counter cell count; cited from earlier work
[9] = tested on: HeLa; settings: read-out: HeLa IC50; proliferation, Coulter Counter cell count; cited from earlier work

SMILES: Nc1nc2c(ncn2COCCO)c(=O)[nH]1 [Acyclovir, reference compound]
- MCC (minimal cytotoxic concentration) [1]: >250 µM

SMILES: Nc1nc(O)c2ncn(COC(CO)CO)c2n1 [Ganciclovir, reference compound]
- MCC (minimal cytotoxic concentration) [1]: >100 µM

SMILES: C#C[C@@]1(O)[C@@H](CO)O[C@@H](n2cc(Br)c3c(Cl)ccnc32)[C@@H]1O [Compound 67, 3-bromo-4-chloro-N1-(3′-C-ethynyl-β-D-ribofuranosyl)-pyrrolo[2,3-b]pyridine]
- MCC (minimal cytotoxic concentration) [1]: >100 µM

SMILES: C#C[C@@]1(O)[C@@H](CO)O[C@@H](n2ccc3c(Cl)ccnc32)[C@@H]1O [Compound 70, 4-chloro-N1-(3′-C-ethynyl-β-D-ribofuranosyl)-pyrrolo[2,3-b]pyridine]
- activity against hCMV [2]: inactive
- MCC (minimal cytotoxic concentration) [1]: >100 µM

SMILES: C#C[C@@]1(O)[C@@H](CO)O[C@@H](n2cc(I)c3c(N)ncnc32)[C@@H]1O [Compound 34, 4-amino-5-iodo-N7-(3′-C-ethynyl-β-D-ribofuranosyl)-pyrrolo[2,3-d]pyrimidine]
- IC50 [3]: < 0.00128 µM

SMILES: C#C[C@@]1(O)[C@@H](CO)O[C@@H](n2cc(Cl)c3c(N)ncnc32)[C@@H]1O [Compound 32, 4-amino-5-chloro-N7-(3′-C-ethynyl-β-D-ribofuranosyl)-pyrrolo[2,3-d]pyrimidine]
- IC50 [3]: < 0.00128 µM
- tumor growth (BLI radiance, caliper) ([4]; 0.3 mg/kg i.t., starting from day 18, after four i.t. injections): significantly retarded
- total metastasis burden in the lungs (BLI) ([4]; day 34 versus vehicle control group): significantly lower

SMILES: C#C[C@@]1(O)[C@@H](CO)O[C@@H](n2cc(F)c3c(N)ncnc32)[C@@H]1O [Compound 31, 4-amino-5-fluoro-N7-(3′-C-ethynyl-β-D-ribofuranosyl)-pyrrolo[2,3-d]pyrimidine]
- IC50 [3]: < 0.00128 µM

SMILES: C#C[C@@]1(O)[C@@H](CO)O[C@@H](n2cc(I)c3c(Cl)ccnc32)[C@@H]1O [Compound 68, 3-iodo-4-chloro-N1-(3′-C-ethynyl-β-D-ribofuranosyl)-pyrrolo[2,3-b]pyridine]
- MCC (minimal cytotoxic concentration) [1]: >100 µM

SMILES: C#C[C@@]1(O)[C@@H](CO)O[C@@H](n2cc(Cl)c3c(Cl)ccnc32)[C@@H]1O [Compound 66, 3,4-dichloro-N1-(3′-C-ethynyl-β-D-ribofuranosyl)-pyrrolo[2,3-b]pyridine]
- selectivity index ([2]; human cytomegalovirus (hCMV)): 10 fold
- MCC (minimal cytotoxic concentration) [1]: ≥100 µM

SMILES: Nc1ccn(C[C@@H](CO)OCP(=O)(O)O)c(=O)n1.O.O [Cidofovir]
- EC50 [5]: 2 µM
- EC50 [6]: 22 µM
- MCC (minimal cytotoxic concentration) [1]: >250 µM

SMILES: C#C[C@@]1(O)[C@@H](CO)O[C@@H](n2cnc3c(N)ncnc32)[C@@H]1O [Compound 5, 3′-C-ethynyladenosine]
- EC50 [6]: 0.35 ± 0.05 µM
- IC50 [7]: 0.73 ± 0.14 µM
- IC50 [8]: 0.61 ± 0.08 µM
- IC50 [9]: 0.29 ± 0.11 µM
